As a reminder, the IC50 is the concentration that inhibits the measured activity by half.

These results are taken from ChEMBL document CHEMBL6114997, “New curcumin derivative induces ferroptosis in MCF-7 cells through activating SLC7A11/GPX4 axis” (Bioorg Med Chem, 2025).

Assay [1] is described as follows: Potency index, ratio of cisplatin IC50 to test compound IC50 for antiproliferative activity against human MCF7 cells assessed as inhibition of cell growth by MTT assay. The format is functional. On the technique in general: Formazan colour is commonly taken as a measure of viable cells.
Assay [2] concerns MCF7. The assay can be described thus: Induction of intracellular ROS level in human MCF7 cells at 1.5 uM incubated for 24 hrs by DCFH-DA staining based fluorescence microscopic analysis (reference value: 4.66%). The format is functional.
In assay [3] the test system is MCF7. The assay can be described thus: Induction of ferroptosis in human MCF7 cells assessed as increase in MDA level at 3.0 micromol/L measured after 24 hrs by absorbance based analysis (reference value: 0.42 micromol/L). The format is functional. To be noted: dose 3 µmol/L.
Assay [4] concerns MCF7. Put plainly: Induction of intracellular ROS level in human MCF7 cells incubated for 24 hrs by DCFH-DA staining based fluorescence microscopic analysis. The format is functional, cell-based. To be noted: dose 1.5-3 µM.
In assay [5] the test system is MCF7. Put plainly: Antiproliferative activity against human MCF7 cells assessed as inhibition of cell growth by MTT assay. The format is functional, cell-based.
Assay [6] deals with MCF7. Put plainly: Induction of ferroptosis in human MCF7 cells assessed as decrease in SLC7A11 to GAPDH ratio at 1.5 to 3.0 micromol/L incubated for 24 hrs by Western blot analysis. To be noted: dose 1.5-3 µmol/L. The format is functional, cell-based.
Assay [7] deals with MCF7. The assay can be described thus: Induction of ferroptosis in human MCF7 cells assessed as decrease in GPX4 to beta-actin ratio at 1.5 to 3.0 micromol/L incubated for 24 hrs by Western blot analysis. It counts as functional, cell-based. Conditions: dose 1.5-3 µmol/L. For orientation: In western blotting, separated proteins are transferred to a membrane and probed.
Assay [8] relates to MCF7. The assay can be described thus: Induction of ferroptosis in human MCF7 cells assessed as increase in intracellular ferrous ion level by measuring increase in fluorescence at 1.5 to 3.0 micromol/L incubated for 24 hrs by ferroOrange probe based fluorescence microscopic analysis. The format is functional, cell-based. Conditions: dose 1.5-3 µmol/L.
Assay [9] relates to MCF7. Put plainly: Induction of ferroptosis in human MCF7 cells assessed as decrease in GPX4 activity at 1.5 to 3.0 micromol/L by absorbance based analysis (reference value: 5.90 mU/mg). It counts as functional. To be noted: dose 1.5-3 µmol/L.
Assay [10] deals with MCF7. The assay can be described thus: Induction of intracellular ROS level in human MCF7 cells at 3.0 uM incubated for 24 hrs by DCFH-DA staining based fluorescence microscopic analysis (reference value: 4.66%). It counts as functional.
For assay [11], the system named is MCF7. Put plainly: Induction of ferroptosis in human MCF7 cells assessed as increase in MDA level at 1.5 micromol/L measured after 24 hrs by absorbance based analysis (reference value: 0.42 micromol/L). To be noted: dose 1.5 µmol/L. The format is functional.
For assay [12], the system named is MCF7. The assay can be described thus: Induction of ferroptosis in human MCF7 cells assessed as change in GPX4 expression incubated for 24 hrs by Western blot analysis. The format is functional, cell-based. Conditions: dose 1.5-3 µmol/L.
Another assay relates to HT-29. Put plainly: Antiproliferative activity against human HT-29 cells assessed as inhibition of cell growth by MTT assay. It counts as functional, cell-based.
The subject of the next assay is HepG2. The assay can be described thus: Antiproliferative activity against human HepG2 cells assessed as inhibition of cell growth by MTT assay. The format is functional, cell-based.
Assay [13] in a line: Potency index, ratio of cisplatin IC50 to test compound IC50 for antiproliferative activity against human HeLa cells assessed as inhibition of cell growth by MTT assay. The format is functional.
Assay [14] can be described thus: Potency index, ratio of cisplatin IC50 to test compound IC50 for antiproliferative activity against human A549 cells assessed as inhibition of cell growth by MTT assay. It counts as functional.
The test system of the next assay is A549. The assay can be described thus: Antiproliferative activity against human A549 cells assessed as inhibition of cell growth by MTT assay. The format is functional, cell-based.
The nature of assay [15]: Potency index, ratio of cisplatin IC50 to test compound IC50 for antiproliferative activity against human HepG2 cells assessed as inhibition of cell growth by MTT assay. It counts as functional.
A further assay relates to HeLa. Put plainly: Antiproliferative activity against human HeLa cells assessed as inhibition of cell growth by MTT assay. It counts as functional, cell-based.
The nature of assay [16]: Potency index, ratio of cisplatin IC50 to test compound IC50 for antiproliferative activity against human HT-29 cells assessed as inhibition of cell growth by MTT assay. It counts as functional.

Molecules are shown by their SMILES. Active and inactive are the calls of the source. The rule behind the calls is not given here.

As to `COc1cc(/C=C/C(=O)C(=Cc2cccs2)C(=O)/C=C/c2ccc(OCCO[N+](=O)[O-])c(OC)c2)ccc1OCCO[N+](=O)[O-]`, the “Ratio IC50” value in assay [1], in assay [13], in assay [14], in assay [15] and in [16] was “>=2” throughout. For the same compound, the Activity with MCF7 [2] was 12.5%; in the assay with MCF7 [3], 1.25 µmol/L; in the assay on MCF7 [4] it was “Dose-dependent-effect”; in the assay with MCF7 [9] it was 3.52 mU/mg; in the assay on MCF7 [10], 60.7%; in the assay on MCF7 [11], 0.84 µmol/L. In addition, the Activity entry with MCF7 [12] was “Dose-dependent-effect”. The 50% inhibitory concentration (IC50) in the assay on MCF7 [5] was 1390 nM; in the assay with HT-29, 1450 nM; in the assay on HepG2, 1210 nM; in the assay with A549, 1030 nM; with HeLa, 6780 nM. The outcome in the assay with MCF7 [6], in the assay on MCF7 [7] and in the assay on MCF7 [8] was Active.
